Molecules are shown by their SMILES.

The subject of the experiment is HCT116 MTAP-deleted cell lines. The experiment in a line: Cell viability assay (CellTiter-Glo, 7 days), HCT116 MTAP-deleted. In kind it is cell-based. The following applies: Homo sapiens, HCT-116; cell viability, HCT116 MTAP-deleted; class symbols; read-out: CC50. An outline of the steps:
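Read-out was CellTiter-Glo luminescence after a 7-day incubation (37 °C, 5% CO2) of HCT116 cells, MTAP-deleted or WT, on dose-response compound plates. CC50 values come from each line; where marked *, selectivity is overstated because poor solubility impaired the WT CC50 measurement.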
Regarding `Cn1ccc(N(Cc2ncc(C(F)(F)F)cc2F)C(=O)c2cc3c(cc2F)nc(N)c2cncn23)n1` [Ff-307, 4-amino-7-fluoro-N-((3-fluoro-5-(trifluoromethyl)pyridin-2-yl)methyl)-N-(1-methyl-1H-pyrazol-3-yl)imidazo[1,5-a]quinoxaline-8-carboxamide], the CC50 is less than 0.1 µM. Consider `CN(C(=O)c1cc2c(cc1Cl)nc(N)c1cncn12)[C@@H]1COCc2nc(C(F)(F)F)ccc21` [Ff-308, (S)-4-amino-7-chloro-N-methyl-N-(2-(trifluoromethyl)-5,8-dihydro-6H-pyrano[3,4-b]pyridin-5-yl)imidazo[1,5-a]quinoxaline-8-carboxamide], for which the CC50 was less than 0.1 µM. Consider `CN(C(=O)c1cc2c(cc1F)nc(N)c1cncn12)C1CCc2cc(C(F)(F)F)ccc21` (stereo not drawn) [Ff-309, 4-amino-7-fluoro-N-methyl-N-(5-(trifluoromethyl)-2,3-dihydro-1H-inden-1-yl)imidazo[1,5-a]quinoxaline-8-carboxamide], for which the CC50 was less than 0.1 µM.

On to `Nc1nc2cc(F)c(C(=O)N(Cc3ccc(C(F)(F)F)cn3)c3cnn(C(F)F)c3)cc2n2cncc12` [Ff-311, 4-amino-N-(1-(difluoromethyl)-1H-pyrazol-4-yl)-7-fluoro-N-((5-(trifluoromethyl)pyridin-2-yl)methyl)imidazo[1,5-a]quinoxaline-8-carboxamide], for which the half-maximal cytotoxic concentration (CC50) was less than 0.1 µM. With `CN(C(=O)c1cc2c(cc1F)nc(N)c1cncn12)[C@@H]1c2ccc(Br)cc2[C@@H]2C[C@H]12` [Ff-312, 4-amino-N-((1aR,6S,6aS)-3-bromo-1,1a,6,6a-tetrahydrocyclopropa[a]inden-6-yl)-7-fluoro-N-methylimidazo[1,5-a]quinoxaline-8-carboxamide] the figure was 0.1 to 1 µM. For `CN(C(=O)c1cc2c(cc1F)nc(N)c1cncn12)[C@H]1c2ccc(Br)cc2[C@H]2C[C@H]21` [Ff-313, 4-amino-N-((1aS,6R,6aR)-3-bromo-1,1a,6,6a-tetrahydrocyclopropa[a]inden-6-yl)-7-fluoro-N-methylimidazo[1,5-a]quinoxaline-8-carboxamide] the value was 0.1 to 1 µM; for `Nc1nc2cc(F)c(C(=O)N(Cc3ccc(C(F)(F)F)cn3)c3cnn(-c4ccccc4)c3)cc2n2cncc12` [Ff-315, 4-amino-7-fluoro-N-(1-phenyl-1H-pyrazol-4-yl)-N-((5-(trifluoromethyl)pyridin-2-yl)methyl)imidazo[1,5-a]quinoxaline-8-carboxamide], less than 0.1 µM; for `Cc1ncn2c1c(N)nc1cc(F)c(C(=O)N(C)[C@@H]3CCc4nc(C(F)(F)F)ccc43)cc12` [Ff-316, (R)-4-amino-7-fluoro-N,3-dimethyl-N-(2-(trifluoromethyl)-6,7-dihydro-5H-cyclopenta[b]pyridin-5-yl)imidazo[1,5-a]quinoxaline-8-carboxamide], less than 0.1 µM.

With `Cc1ncc2c(N)nc3cc(F)c(C(=O)N(C)[C@@H]4CCc5nc(C(F)(F)F)ccc54)cc3n12` [Ff-317, (R)-4-amino-7-fluoro-N,1-dimethyl-N-(2-(trifluoromethyl)-6,7-dihydro-5H-cyclopenta[b]pyridin-5-yl)imidazo[1,5-a]quinoxaline-8-carboxamide], the CC50 is 0.1 to 1 µM. With `CN(C(=O)c1cc2c(cc1F)nc(N)c1cncn12)[C@@H]1CCc2nc(C(F)(F)F)ccc21` [Ff-318, (R)-4-amino-7-fluoro-N-methyl-N-(2-(trifluoromethyl)-6,7-dihydro-5H-cyclopenta[b]pyridin-5-yl)imidazo[1,5-a]quinoxaline-8-carboxamide] the figure was less than 0.1 µM; with `Nc1nc2cc(F)c(C(=O)N3CCO[C@@H]4Cc5cc(C(F)(F)F)c(F)cc5[C@@H]43)cc2n2cncc12` [Ff-326, (4-amino-7-fluoroimidazo[1,5-a]quinoxalin-8-yl)((4aS,9aR)-6-fluoro-7-(trifluoromethyl)-2,3,9,9a-tetrahydroindeno[2,1-b][1,4]oxazin-4(4aH)-yl)methanone], less than 0.1 µM; with `CC1CN(C(=O)c2cc3c(cc2F)nc(N)c2cncn23)[C@H]2c3cc(F)ccc3C[C@H]2O1` (stereo partly drawn) [Ff-327, (4-amino-7-fluoroimidazo[1,5-a]quinoxalin-8-yl)((4aS,9aR)-6-fluoro-2-methyl-2,3,9,9a-tetrahydroindeno[2,1-b][1,4]oxazin-4(4aH)-yl)methanone], less than 0.1 µM. With `CN(C(=O)c1cc2c(cc1F)nc(N)c1cncn12)[C@H]1c2ccc(Br)cc2[C@@H]2C[C@@H]21` [Ff-330, 4-amino-N-((1aR,6R,6aS)-3-bromo-1,1a,6,6a-tetrahydrocyclopropa[a]inden-6-yl)-7-fluoro-N-methylimidazo[1,5-a]quinoxaline-8-carboxamide] the figure was 0.1 to 1 µM. In the case of `Nc1nc2cnc(C(=O)N3CCC[C@@H]4Oc5c(ccc(OC(F)(F)F)c5F)[C@@H]43)cc2n2cncc12` [Ff-336, (4-aminoimidazo[1,5-a]pyrido[3,4-e]pyrazin-8-yl)((4aS,9bS)-6-fluoro-7-(trifluoromethoxy)-3,4,4a,9b-tetrahydrobenzofuro[3,2-b]pyridin-1(2H)-yl)methanone], the CC50 is less than 0.1 µM. On to `CN(C(=O)c1cc2c(cc1F)nc(N)c1cncn12)[C@@H]1COc2cc(C(C)(F)F)ccc21` [Ff-337, (S)-4-amino-N-(6-(1,1-difluoroethyl)-2,3-dihydrobenzofuran-3-yl)-7-fluoro-N-methylimidazo[1,5-a]quinoxaline-8-carboxamide], for which the cytotoxic concentration (CC50) is less than 0.1 µM. Consider `CN(C(=O)c1cc2c(cn1)nc(N)c1cncn12)[C@@H]1COc2cc(C(F)(F)F)ccc21` [Ff-342, (S)-4-amino-N-methyl-N-(6-(trifluoromethyl)-2,3-dihydrobenzofuran-3-yl)imidazo[1,5-a]pyrido[3,4-e]pyrazine-8-carboxamide], for which the cytotoxic concentration (CC50) was less than 0.1 µM.

`Nc1nc2cc(F)c(C(=O)N3CCC[C@@H]4Oc5c(ccc(OC(F)(F)F)c5F)[C@@H]43)cc2n2cncc12` [Ff-343, (4-amino-7-fluoroimidazo[1,5-a]quinoxalin-8-yl)((4aS,9bS)-6-fluoro-7-(trifluoromethoxy)-3,4,4a,9b-tetrahydrobenzofuro[3,2-b]pyridin-1(2H)-yl)methanone]: the cytotoxic concentration (CC50) is less than 0.1 µM. Take `Cc1ncc2c(N)nc3cnc(C(=O)N4CCC[C@@H]5Oc6c(ccc(OC(F)(F)F)c6F)[C@@H]54)cc3n12` [Ff-347, (4-amino-1-methylimidazo[1,5-a]pyrido[3,4-e]pyrazin-8-yl)((4aS,9bS)-6-fluoro-7-(trifluoromethoxy)-3,4,4a,9b-tetrahydrobenzofuro[3,2-b]pyridin-1(2H)-yl)methanone]: the cytotoxic concentration (CC50) is less than 0.1 µM.

Regarding `C[C@@H]1C[C@@H]2Oc3c(ccc(C(F)(F)F)c3F)[C@@H]2N(C(=O)c2cc3c(cn2)nc(N)c2cncn23)C1` [Ff-348, (4-aminoimidazo[1,5-a]pyrido[3,4-e]pyrazin-8-yl)((3R,4aS,9bS)-6-fluoro-3-methyl-7-(trifluoromethyl)-3,4,4a,9b-tetrahydrobenzofuro[3,2-b]pyridin-1(2H)-yl)methanone], the CC50 was less than 0.1 µM.

As to `N#Cc1cc2nc(N)c3cncn3c2cc1C(=O)N1CCC[C@@H]2Oc3cc(OC(F)(F)F)ccc3[C@@H]21` [Ff-349, 4-amino-8-((4aS,9bS)-7-(trifluoromethoxy)-1,2,3,4,4a,9b-hexahydrobenzofuro[3,2-b]pyridine-1-carbonyl)imidazo[1,5-a]quinoxaline-7-carbonitrile], the cytotoxic concentration (CC50) was less than 0.1 µM. For `Cc1ncc2c(N)nc3ccc(C(=O)N(C)[C@@H]4COc5cc(C(F)(F)F)c(F)cc54)cc3n12` [Ff-352, (S)-4-amino-N-(5-fluoro-6-(trifluoromethyl)-2,3-dihydrobenzofuran-3-yl)-N,1-dimethylimidazo[1,5-a]quinoxaline-8-carboxamide] the value was less than 0.1 µM; for `CN(C(=O)c1ccc2nc(N)c3cncn3c2c1)[C@@H]1COc2cc(C(F)(F)F)c(F)cc21` [Ff-353, (S)-4-amino-N-(5-fluoro-6-(trifluoromethyl)-2,3-dihydrobenzofuran-3-yl)-N-methylimidazo[1,5-a]quinoxaline-8-carboxamide], less than 0.1 µM. With `CN(C(=O)c1cc2c(cc1F)nc(N)c1cncn12)[C@@H]1COc2c1ccc(C(F)(F)F)c2F` [Ff-354, (S)-4-amino-7-fluoro-N-(7-fluoro-6-(trifluoromethyl)-2,3-dihydrobenzofuran-3-yl)-N-methylimidazo[1,5-a]quinoxaline-8-carboxamide] the figure was less than 0.1 µM; with `Cc1ncc2c(N)nc3ccc(C(=O)N(C)[C@@H]4COc5c4ccc(C(F)(F)F)c5F)cc3n12` [Ff-355, (S)-4-amino-N-(7-fluoro-6-(trifluoromethyl)-2,3-dihydrobenzofuran-3-yl)-N,1-dimethylimidazo[1,5-a]quinoxaline-8-carboxamide], 0.1 to 1 µM; with `CN(C(=O)c1ccc2nc(N)c3cncn3c2c1)[C@@H]1COc2c1ccc(C(F)(F)F)c2F` [Ff-356, (S)-4-amino-N-(7-fluoro-6-(trifluoromethyl)-2,3-dihydrobenzofuran-3-yl)-N-methylimidazo[1,5-a]quinoxaline-8-carboxamide], less than 0.1 µM. Regarding `Nc1nc2cc(F)c(C(=O)N3CCC[C@@H]4OCc5nc(C(F)(F)F)ccc5[C@@H]43)cc2n2cncc12` [Ff-357, (4-amino-7-fluoroimidazo[1,5-a]quinoxalin-8-yl)((4aS,10bS)-8-(trifluoromethyl)-2,3,4,4a,6,10b-hexahydro-1H-pyrano[3,2-b:5,4-b′]dipyridin-1-yl)methanone], the CC50 was less than 0.1 µM. With `Cc1ncn2c1c(N)nc1cc(F)c(C(=O)N3CCC[C@@H]4OCc5nc(C(F)(F)F)ccc5[C@@H]43)cc12` [Ff-358, (4-amino-7-fluoro-3-methylimidazo[1,5-a]quinoxalin-8-yl)((4aS,10bS)-8-(trifluoromethyl)-2,3,4,4a,6,10b-hexahydro-1H-pyrano[3,2-b:5,4-b′]dipyridin-1-yl)methanone] the figure was less than 0.1 µM.

The values are drawn from US12448388B2, “PRMT5 inhibitors and uses thereof” (Gilead Sciences, Inc., priority 2023, dated 2025).
